For data set [1] the following is noted: high concentrations; cited from earlier work.
The subject of data set [2] is human patients suffering from secondary Meniere's disease (activated cervical sympathetic nervous system, mild Eustachian tube dysfunction). The experiment in a line: Clinical treatment of secondary Meniere's disease patients with oral betahistine, electrocochleography (ECochG) SP/AP amplitude ratio and symptoms. The data set is classed as in vivo. The method, then:
Patients, aged 19-70 years, have undergone baseline testing to determine SP/AP amplitude ratio using ECochG in Meniere's disease patients before the start of study treatment. The effect on SP/AP amplitude ratio was evaluated after a predetermined period of treatment with betahistine or a pharmaceutically acceptable salt.
Patients were seated in a swivel chair and the chair rotated while the patient's head was stabilized. Effect of rotational movement was observed and pupil enlargement a determinant of secondary Meniere's disease.
Dose levels included 16 mg of betahistine three time daily for predetermined period. 8 mg dose twice daily thereafter for a second predetermined period.
Patient studies comprise a range of dosing regimens including tablets, powders, sprays. In present studies unless otherwise stated each dose was administered in a tablet form in the morning taken after food.
Route of Administration can include oral and topical delivery. In the present studies unless otherwise stated route of administration was oral delivery.
Audiological evaluations were performed at specified intervals to evaluate the efficacy of Tests performed by physician or qualified audiologist. ECochG was performed at specified intervals by a physician specialist. Patient reported outcomes by self-administered questionnaire included the VSS (Yardley et al. 2004) and the TFI (Meikle et al. 2011). These were scored by study personnel.
Patient was started on oral dosage form of betahistine 16 mg three times daily (tds) for two weeks and reduced to 8 mg once daily thereafter for two months.

The test system of data set [3] is humans with Eustachian tube dysfunction. The following applies: cited from earlier work.
Data set [4] has as its system Eustachian tube function in rat model. To be noted: topical application; cited from earlier work.
The test system of data set [5] is eustachian tube function in "normal" volunteers. The following applies: cited from earlier work; for effect on eustachian tube function (tympanometry): "normal" volunteers, nasal application.
Setting [6] is: patient, review at two months of oral betahistine.
Where [7] appears, read: patient, two months into oral betahistine treatment.

“And” between values parts separate entries of the source, which are not always exact repeats. Equal values may be shown once. Read-outs that look alike come from different tables or passages of the source.

For `CNCCc1ccccn1` [betahistine], the toxicity entry in data set [1] is given as “nontoxic”. The “elevated SP/AP ratio indicating endolymphatic hydrops” value in data set [2] (all cases of secondary MD treated) is recorded as “normalized”. In data set [2] (patient, after treatment (before treatment 28.6%)), the “Left Ear SP/AP Ratio, Average Ratio” value is recorded as “Average Ratio of 16%”. For the same compound, the “Right Ear SP/AP Ratio” value in data set [2] (patient, after treatment, single traces) was 9% and 18%. For the same compound, the repeat electrocochleograms entry in data set [2] (setting [6]) and in data set [2] (setting [7]) was “returned to normal levels” throughout. Also, the symptoms at review result in data set [2] (setting [6]) and in data set [2] (setting [7]) was “improved significantly” throughout. For the same compound, the treatment outcomes in data set [2] (patients suffering from secondary MD) is on record as “invariably improved treatment outcomes”. For the same compound, the Eustachian tube function result in data set [2] (patients with activated cervical sympathetic nervous system and mild Eustachian tube dysfunction) is “facilitation of Eustachian tube function”; in data set [4], “improved”. Besides, the result versus placebo in data set [3] is on record as “no greater result than a placebo”. Also, the “effect on eustachian tube function (tympanometry)” value is “no effect” in data set [5] (at best) and “Eustachian tube function became worse” in data set [5] (higher dosages). Also, in data set [5] (volunteers found to have mild Eustachian tube dysfunction), the “mild Eustachian tube dysfunction” value was “not improved”.

The values above are taken from patent publication US11116719B2, “Methods of treating Meniere's disease” (priority 2017, dated 2021).
